Measurements reported in patent US8507489B2, “Bicyclic triazoles as protein kinase modulators” (SGX Pharmaceuticals, Inc., priority 2006, dated 2013).
Counter-ions that a name gives are not always drawn.

Columns and labels:
c-MET = c-MET (Homo sapiens, UniProt P08581); assay: MET luminescence-based enzyme assay (Kinase-Glo); format: biochemical
Method: The subscript designates positive or negative controls. The Z′ score for a robust screening assay should be ≧0.50. The typical threshold=μ+−3*σ+. Any value that falls below the threshold was designated a “hit”.
MET Luminescence-Based Enzyme Assay
MET kinase (see below), Kinase-Glo™ (Promega Cat#V6712).
Negative controls contained 10 μM staurosporine.

GTL16 cells = assay: 96-well XTT cell survival assay (GTL16 cells); format: cell-based
Method: GTL16 cells were maintained in DMEM Medium supplemented with 10% fetal bovine serum (FBS) 2 mM L-Glutamine and 100 units penicillin/100 μg streptomycin, at 37° C. in 5% CO2.
Compounds were tested in the following assays in duplicate.
96-well XTT assay (GTL16 cells): One day prior to assay the growth media was aspirated off and assay media was added to cells. On the day of the assay, the cells were grown in assay media containing various concentrations of compounds (duplicates) on a 96-well flat bottom plate for 72 hours at 37° C. in 5% CO2. The starting cell number was 5000 cells per well and volume was 120 μl. At the end of the 72-hour incubation, 40 μl of XTT labeling mixture (50:1 solution of sodium 3′-[1-(phenylaminocarbonyl)-3,4-tetrazolium]-bis (4-methoxy-6-nitro) benzene sulfonic acid hydrate and Electron-coupling reagent: PMS (N-methyl dibenzopyrazine methyl sulfate) were added to each well of the plate. After an additional 5 hours of incubation at 37° C., the absorbance reading at 450 nm with a background correction of 650 nm was measured with a spectrophotometer.

c-MET, sequence (P08581 1078-1345 limits assumed): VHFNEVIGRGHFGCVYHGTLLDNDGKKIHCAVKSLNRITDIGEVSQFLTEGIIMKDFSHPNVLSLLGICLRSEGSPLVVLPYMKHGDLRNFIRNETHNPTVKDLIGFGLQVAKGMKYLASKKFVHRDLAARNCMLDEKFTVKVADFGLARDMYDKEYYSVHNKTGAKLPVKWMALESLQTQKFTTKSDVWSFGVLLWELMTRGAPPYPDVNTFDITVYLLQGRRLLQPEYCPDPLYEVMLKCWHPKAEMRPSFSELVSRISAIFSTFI

Row | Compound | IC50 (c-MET) | IC50 (GTL16 cells; Homo sapiens, GTL 16, 72 hours) | IC50 (GTL16 cells; 72 hours)
1 | Cn1cc(-c2ccc3nnc(Sc4ccc5ncc(N)cc5c4)n3n2)cn1 [Compound 33, 6-[6-(1-Methyl-1H-pyrazol-4-yl)-[1,2,4]triazolo[4,3-b]pyridazin-3-ylsulfanyl]-quinolin-3-ylamine, trifluoroacetic acid salt] | < 100 nM | ≤ 100 nM | 
2 | Cn1cc(-c2ccc3nnc(Sc4ccc5ncc(NC(=O)OC(C)(C)C)cc5c4)n3n2)cn1 [Compound 35, {6-[6-(1-Methyl-1H-pyrazol-4-yl)-[1,2,4]triazolo[4,3-b]pyridazin-3-ylsulfanyl]-quinolin-3-yl}-carbamic acid tert-butyl ester] | < 100 nM | ≤ 100 nM | 
3 | c1cnc2ccc(Sc3nnc4ccc(-c5cn[nH]c5)nn34)cc2c1 [Compound 39, 6-[6-(1H-Pyrazol-4-yl)-[1,2,4]triazolo[4,3-b]pyridazin-3-ylsulfanyl]-quinoline] | < 100 nM | 100 to 1000 nM | 
4 | Cn1cc(-c2cnc3ccc(Sc4nnc5ccc(-c6cnn(C)c6)nn45)cc3c2)cn1 [Compound 40, 3-(1-Methyl-1H-pyrazol-4-yl)-6-[6-(1-methyl-1H-pyrazol-4-yl)-[1,2,4]triazolo[4,3-b]pyridazin-3-ylsulfanyl]-quinoline] | < 100 nM | ≤ 100 nM | 
5 | Cc1ccc2nnc(Sc3ccc4ncc(-c5cnn(CC(=O)O)c5)cc4c3)n2n1 [Compound 42, {4-[6-(6-Methyl-[1,2,4]triazolo[4,3-b]pyridazin-3-ylsulfanyl)-quinolin-3-yl]-pyrazol-1-yl}-acetic acid] | < 100 nM | 1000 to 10000 nM | 
6 | Cc1ccc2nnc(Sc3ccc4ncc(-c5cnn(CCN6CCOCC6)c5)cc4c3)n2n1 [Compound 44, 6-(6-Methyl-[1,2,4]triazolo[4,3-b]pyridazin-3-ylsulfanyl)-3-[1-(2-morpholin-4-yl-ethyl)-1H-pyrazol-4-yl]-quinoline] | < 100 nM | ≤ 100 nM | 
7 | Cc1ccc2nnc(Sc3ccc4ncc(-c5cnn(C(C)(C)C(=O)O)c5)cc4c3)n2n1 [Compound 45, 2-Methyl-2-{4-[6-(6-methyl-[1,2,4]triazolo[4,3-b]pyridazin-3-ylsulfanyl)-quinolin-3-yl]-pyrazol-1-yl}-propionic acid] | < 100 nM | 1000 to 10000 nM | 
8 | Cn1cc(-c2cnc3[nH]cc(Sc4nnc5ccc(-c6cnn(C)c6)nn45)c3c2)cn1 [Compound 46, 6-(1-Methyl-1H-pyrazol-4-yl)-3-[5-(1-methyl-1H-pyrazol-4-yl)-1H-pyrrolo[2,3-b]pyridin-3-ylsulfanyl]-[1,2,4]triazolo[4,3-b]pyridazine] | < 100 nM | ≤ 100 nM | 
9 | Cn1cc(-c2ccc3nnc(Sc4ccc5nccc(OCCO)c5c4)n3n2)cn1 [Compound 50, 2-{6-[6-(1-Methyl-1H-pyrazol-4-yl)-[1,2,4]triazolo[4,3-b]pyridazin-3-ylsulfanyl]-quinolin-4-yloxy}-ethanol] | < 100 nM | ≤ 100 nM | 
10 | Cc1ccc2nnc(Sc3cc4cc(-c5cnn(C)c5)cnc4cc3F)n2n1 [Compound 52, 7-Fluoro-3-(1-methyl-1H-pyrazol-4-yl)-6-(6-methyl-[1,2,4]triazolo[4,3-b]pyridazin-3-ylsulfanyl)-quinoline] | < 100 nM | ≤ 100 nM | 
11 | Cc1ccc2nnc(Sc3c[nH]c4ncc(-c5cnn(C)c5)cc34)n2n1 [Compound 53, 6-Methyl-3-[5-(1-methyl-1H-pyrazol-4-yl)-1H-pyrrolo[2,3-b]pyridin-3-ylsulfanyl]-[1,2,4]triazolo[4,3-b]pyridazine] | < 100 nM | 100 to 1000 nM | 
12 | Cn1cc(-c2ccc3nnc(Sc4ccc5ncccc5c4F)n3n2)cn1 [Compound 55, 5-Fluoro-6-[6-(1-methyl-1H-pyrazol-4-yl)-[1,2,4]triazolo[4,3-b]pyridazin-3-ylsulfanyl]-quinoline] | < 100 nM | ≤ 100 nM | 
13 | Cc1ccc2nnc(Sc3ccc4ncc(-c5cnn(C)c5)cc4c3F)n2n1 [Compound 56, 5-Fluoro-3-(1-methyl-1H-pyrazol-4-yl)-6-(6-methyl-[1,2,4]triazolo[4,3-b]pyridazin-3-ylsulfanyl)-quinoline] | < 100 nM | ≤ 100 nM | 
14 | CCc1ccc2nnc(Sc3ccc4ncc(-c5cnn(C)c5)cc4c3)n2n1 [Compound 58, 6-(6-Ethyl-[1,2,4]triazolo[4,3-b]pyridazin-3-ylsulfanyl)-3-(1-methyl-1H-pyrazol-4-yl)-quinoline] | < 100 nM | ≤ 100 nM | 
15 | (2:1) mixture of 3-(7-Methyl-benzothiazol-6-ylsulfanyl)-6-(1-methyl-1H-pyrazol-4-yl)-[1,2,4]triazolo[4,3-b]pyridazine and 3-(5-Methyl-benzothiazol-6-ylsulfanyl)-6-(1-methyl-1H-pyrazol-4-yl)-[1,2,4]triazolo[4,3-b]pyridazine [Compound 8] | < 100 nM |  | ≤ 100 nM

Now from value to compound, other results behind:

Row | IC50 (c-MET) | Compound | IC50 (GTL16 cells; Homo sapiens, GTL 16, 72 hours) | IC50 (GTL16 cells; 72 hours)
16 | < 100 nM | Cc1ccc2nnc(Sc3ccc4ncc(-c5cn[nH]c5)cc4c3)n2n1 [Compound 59, 6-(6-Methyl-[1,2,4]triazolo[4,3-b]pyridazin-3-ylsulfanyl)-3-(1H-pyrazol-4-yl)-quinoline] | 100 to 1000 nM | 
17 | < 100 nM | CCc1ccnc2ccc(Sc3nnc4ccc(-c5cnn(C)c5)nn34)cc12 [Compound 60, 4-Ethyl-6-[6-(1-methyl-1H-pyrazol-4-yl)-[1,2,4]triazolo[4,3-b]pyridazin-3-ylsulfanyl]-quinoline] | ≤ 100 nM | 
18 | < 100 nM | CCN1CC(n2cc(-c3cnc4ccc(Sc5nnc6ccc(C)nn56)cc4c3)cn2)C1 [Compound 61, 3-[1-(1-Ethyl-azetidin-3-yl)-1H-pyrazol-4-yl]-6-(6-methyl-[1,2,4]triazolo[4,3-b]pyridazin-3-ylsulfanyl)-quinoline] | ≤ 100 nM | 
19 | < 100 nM | Cc1ccc2nnc(Sc3ccc4ncc(-c5cnn(C6CNC6)c5)cc4c3)n2n1 [Compound 62, 3-(1-Azetidin-3-yl-1H-pyrazol-4-yl)-6-(6-methyl-[1,2,4]triazolo[4,3-b]pyridazin-3-ylsulfanyl)-quinoline] | ≤ 100 nM | 
20 | < 100 nM | Cc1ccc2nnc(Sc3ccc4ncc(-c5cnn(C6CN(C)C6)c5)cc4c3)n2n1 [Compound 63, 3-[1-(1-Methyl-azetidin-3-yl)-1H-pyrazol-4-yl]-6-(6-methyl-[1,2,4]triazolo[4,3-b]pyridazin-3-ylsulfanyl)-quinoline] | ≤ 100 nM | 
21 | < 100 nM | Cc1ccc2nnc(Sc3ccc4ncc(-c5cnn(C6CN(C(=O)OC(C)(C)C)C6)c5)cc4c3)n2n1 [Compound 64, 3-{4-[6-(6-Methyl-[1,2,4]triazolo[4,3-b]pyridazin-3-ylsulfanyl)-quinolin-3-yl]-pyrazol-1-yl}-azetidine-1-carboxylic acid tert-butyl ester] | ≤ 100 nM | 
22 | < 100 nM | Cc1ccc2nnc(Sc3ccc4ncc(-c5cnn(CC6CN(C(=O)OC(C)(C)C)C6)c5)cc4c3)n2n1 [Compound 65, 3-{4-[6-(6-Methyl-[1,2,4]triazolo[4,3-b]pyridazin-3-ylsulfanyl)-quinolin-3-yl]-pyrazol-1-ylmethyl}-azetidine-1-carboxylic acid tert-butyl ester] | ≤ 100 nM | 
23 | < 100 nM | CCn1cc(-c2cnc3ccc(Sc4nnc5ccc(C)nn45)cc3c2)cn1 [Compound 66, 3-(1-Ethyl-1H-pyrazol-4-yl)-6-(6-methyl-[1,2,4]triazolo[4,3-b]pyridazin-3-ylsulfanyl)-quinoline] | ≤ 100 nM | 
24 | < 100 nM | CCN1CC(Cn2cc(-c3cnc4ccc(Sc5nnc6ccc(C)nn56)cc4c3)cn2)C1 [Compound 67, 3-[1-(1-Ethyl-azetidin-3-ylmethyl)-1H-pyrazol-4-yl]-6-(6-methyl-[1,2,4]triazolo[4,3-b]pyridazin-3-ylsulfanyl)-quinoline] | ≤ 100 nM | 
25 | < 100 nM | CNc1ccc2nnc(Sc3ccc4ncc(-c5cnn(C)c5)cc4c3)n2n1 [Compound 68, Methyl-{3-[3-(1-methyl-1H-pyrazol-4-yl)-quinolin-6-ylsulfanyl]-[1,2,4]triazolo[4,3-b]pyridazin-6-yl}-amine] | ≤ 100 nM | 
26 | < 100 nM | Cc1ccc2nnc(Sc3ccc4ncc(-c5cnn(C6CN(C(C)C)C6)c5)cc4c3)n2n1 [Compound 69, 3-[1-(1-Isopropyl-azetidin-3-yl)-1H-pyrazol-4-yl]-6-(6-methyl-[1,2,4]triazolo[4,3-b]pyridazin-3-ylsulfanyl)-quinoline] | ≤ 100 nM | 
27 | < 100 nM | CCc1ccc2nnc(Sc3ccc4ncc(-c5cnn(C6CN(CC)C6)c5)cc4c3)n2n1 [Compound 70, 3-[1-(1-Ethyl-azetidin-3-yl)-1H-pyrazol-4-yl]-6-(6-ethyl-[1,2,4]triazolo[4,3-b]pyridazin-3-ylsulfanyl)-quinoline] | ≤ 100 nM | 
